The values that follow come from patent publication US20090030058A1, “TOSYLATE SALT OF 6- (4-BR0M0-2-CHL0R0PHENYLAMIN0) -7-FLUORO-N- (2-HYDROXYETHOXY) -3-METHYL-3H-BENZIMI DAZOLE- 5 - CARBOXAMIDE , MEK INHIBITOR USEFUL IN THE TREATMENT OF CANCER” (priority 2005, published 2009).

Entries after “also recorded” stand apart in the source; their conditions may differ. Counter-ions that a name gives are not always drawn.

A short description of series [1]: Solubility in various media (amount dissolved after stirring with excess solid). The format is physicochemical. As to the method:
Due to the observation of the tosylate salt remaining as the salt form in solution, further investigations were performed to probe the solubility of the salts in various media. The amounts dissolved (mg/mL) in the various media after stirring either the Compound 1 free base or the Compound 1 tosylate salt with excess solid for 10 minutes and 60 minutes are shown in Table 4 (SIF=Simulated intestinal fluid; FaSIF=Fasted Simulated Intestinal Fluid).

Series [2] concerns constitutively active MEK1 (2-393). The experiment in a line: MEK1 kinase assay (33P incorporation onto ERK2). The format is biochemical. As to the method:
N-terminal 6 His-tagged, constitutively active MEK1 (2-393) is expressed in E. coli and protein is purified by conventional methods (Ahn et al., Science 1994, 265, 966-970). The activity of MEK1 is assessed by measuring the incorporation of γ-^33P-phosphate from γ-^33P-ATP onto N-terminal His tagged ERK2, which is expressed in E. coli and is purified by conventional methods, in the presence of MEK1. The assay is carried out in 96-well polypropylene plate. The incubation mixture (100 μL) comprises of 25 mM Hepes, pH 7.4, 10 mM MgCl2, 5 mM β-glycerolphosphate, 100 μM sodium orthovanadate, 5 mM DTT, 5 nM MEK1, and 1 μM ERK2. Inhibitors are suspended in DMSO, and all reactions, including controls are performed at a final concentration of 1% DMSO. Reactions are initiated by the addition of 10 μM ATP (with 0.5 μCi γ-^33P-ATP/well) and incubated at ambient temperature for 45 minutes. Equal volume of 25% TCA is added to stop the reaction and precipitate the proteins. Precipitated proteins are trapped onto glass fiber B filterplates, and excess labeled ATP washed off using a Tomtec MACH III harvestor. Plates are allowed to air-dry prior to adding 30 μL/well of Packard Microscint 20, and plates are counted using a Packard TopCount.

Series [3] can be described thus: Percent dissolution after 1 hour, tablet and powder form. The format is physicochemical. How it is done:
Dissolution of the free base of Compound 1 as well as the tosylate salt of Compound 1 was investigated at the 1 hour time point in both tablet form and powder form. The dissolution rate of the tosylate salt was generally much higher than that of the free base.

Series [4] in a line: Intrinsic and powder dissolution rate (pH 6.5). The series is classed as physicochemical. How it is done: In order to investigate the effects of salts on the release rate, an intrinsic dissolution (pH 6.5) was performed.
Series [5] in a line: Particle size reduction (milling, micronisation), PXRD. The note with it: pestle and mortar 10 minutes or spiral jet mill, listed as tosylate salt, p-toluenesulfonate. The series is classed as physicochemical. As to the method: In order to investigate the potential for the materials to become amorphous during particle size reduction procedures, batches of the material were milled either by grinding the material in a pestle and mortar for 10 minutes or by micronising using conventional micronising equipment, in this case, a 2″ Spiral jet mill manufactured by Gravesend engineering. The products were subjected to PXRD as described in Example 4 above.

A short description of series [6]: Disproportionation study, slurry in pH 6.5 buffer, XRPD. The series is classed as physicochemical. Conditions: for disproportionation of the salt to the free base in buffer: suspension/slurry in pH 6.5 buffer, XRPD, p-toluenesulfonate. As to the method:
The characteristics of the salts in liquids were investigated by slurrying the material in a range of solvents including a buffer of pH 6.5 to simulate physiological conditions.
Compound 1 tosylate salt was slurried in pH 6.5 buffer at room temperature at a concentration of 100 mg in 2 mL. Samples were taken at 15 minute intervals up to 120 minutes.
In order to prepare the pH 6.5 slurry of Compound 1 tosylate salt, a buffer was first prepared by producing a first solution (Solution A) by adding 90.8 mg of potassium dihydrogen phosphate to a conical 100 mL flask. Deionised water was added to mark ensuring all solid had dissolved. A second solution (Solution B) was prepared by adding 118.8 mg of disodium hydrogen phosphate to a conical 100 mL flask and deionised water was added to mark ensuring all solid had dissolved. Then 64 mL of solution A was mixed with 32 mL of solution B to form a pH 6.5 buffer
The slurry was prepared by adding 100 mg of Compound 1 tosylate to a 10 mL vial and to this was added 2 mL of the pH 6.5 buffer (prepared above), a magnetic stir bar was added and vial placed on a magnetic stirrer. Small aliquots of the suspension were removed after 15 minutes, 30 minutes, 45 minutes, 60 minutes and 120 minutes and each sample was placed on a metal plate on the D8 Diffractometer and an XRPD pattern determined immediately. The results after 0, 15 and 60 minutes are shown in FIGS. 7, 8 and 9, respectively.

A short description of series [7]: Dog study, plasma levels of Compound 1 after oral tablets. The format is in vivo, Alderley Park Beagle Dogs. Conditions: fasted dogs, 50 mg or 150 mg fbe. As to the method:
A dog study was performed to measure plasma levels of Compound 1 in fasted dogs following oral administration of 50 mg free base equivalent (fbe) doses in tablets of the free base and the tosylate salt (form 2 of the 1:1 stoichiometric salt), and 150 mg fbe as 3×50 mg tablets of the tosylate salt.
Tablets of Compound 1 were manufactured using a standard direct compression process. Three batches were made containing Compound 1 free base or Compound 1 tosylate as the active pharmaceutical ingredient (API). The generic formulation contained API (12.5% w/w), fast flo lactose (72.0% w/w), Avicel PH102 (10.0% w/w), AcDiSol (4.0% w/w), sodium lauryl sulfate (0.5% w/w) and magnesium stearate (1.0% w/w). The required quantity of each formulation component, excluding magnesium stearate, was weighed and charged to a mixing vessel. The powders were then mixed for 30 minutes using a tumble blender. The powder mix was then sieved through a 425 μm sieve before being mixed for a further 15 minutes using the tumble blender. […] The required quantity of powder mix for each tablet was weighed individually and charged to the die before being compressed manually using a hand-operated press. […]
Dogs were fed about 400 g of Harlan Teklad 2021 each day and allowed water ad libitum. […] Plasma (50 mcL) was analysed for Compound 1 concentration.

Series [8] in a line: Solid state storage stability (disproportionation). The series is classed as physicochemical. Conditions: 3 months storage at 40° C. and 5% relative humidity.
A short description of series [9]: Relative stability of polymorphs. The format is physicochemical. Conditions: 1:1 anhydrous salt.

On to `Cn1cnc2c(F)c(Nc3ccc(Br)cc3Cl)c(C(=O)NOCCO)cc21` [Compound 1, 6-(4-bromo-2-chloro-phenylamino)-7-fluoro-3-methyl-3H-benzoimidazole-5-carboxylic acid (2-hydroxy-ethoxy)-amide], for which the amount dissolved in series [1] (FaSSIF, 10 min, listed as Compound 1 free base) was 0.01 mg/mL; in series [1] (FaSSIF, 60 min, listed as Compound 1 free base), 0.01 mg/mL; in [1] (H2O, 10 min, listed as Compound 1 free base), 0.004 mg/mL; in series [1] (SIF pH 6.5, 10 min, listed as Compound 1 free base), 0.004 mg/mL; in [1] (SIF pH 6.5, 60 min, listed as Compound 1 free base) it was 0.004 mg/mL; in [1] (Sorenson's buffer, 10 min, listed as Compound 1 free base), 0.004 mg/mL. Further, the amount dissolved in series [1] (Sorenson's buffer, 60 min, listed as Compound 1 free base) was 0.004 mg/mL; in [1] (pH 1.2, 10 min, listed as Compound 1 free base), 0.14 mg/mL; in series [1] (pH 1.2, 60 min, listed as Compound 1 free base), 0.13 mg/mL. For the same compound, the “activity in MEK1 assay” value in series [2] is “activity”. The “percent dissolution after 1 hour” value is 4.54% in series [3] (FaSSIF, 50 mg (fbe) tablets, listed as Compound 1 Free base); 4.49% in [3] (FaSSIF, powder, listed as Compound 1 Free base); 2.61% in [3] (SIF pH 6.5, 50 mg (fbe) tablets, listed as Compound 1 Free base); 2.36% in series [3] (SIF pH 6.5, powder, listed as Compound 1 Free base).
With `Cn1cnc2c(F)c(Nc3ccc(Br)cc3Cl)c(C(=O)NOCCO)cc21` [Compound 1 tosylate, 6-(4-bromo-2-chloro-phenylamino)-7-fluoro-3-methyl-3H-benzoimidazole-5-carboxylic acid (2-hydroxy-ethoxy)-amide p-toluenesulfonate], the amount dissolved amounted to 0.19 mg/mL in [1] (FaSSIF, 10 min, p-toluenesulfonate); 0.04 mg/mL in series [1] (FaSSIF, 60 min, p-toluenesulfonate); 0.058 mg/mL in series [1] (H2O, 10 min, p-toluenesulfonate); 0.041 mg/mL in series [1] (SIF pH 6.5, 10 min, p-toluenesulfonate); 0.020 mg/mL in series [1] (SIF pH 6.5, 60 min, p-toluenesulfonate); 0.019 mg/mL in series [1] (Sorenson's buffer, 10 min, p-toluenesulfonate). The amount dissolved is recorded as 0.007 mg/mL in series [1] (Sorenson's buffer, 60 min, p-toluenesulfonate); 0.41 mg/mL in series [1] (pH 1.2, 10 min, p-toluenesulfonate); 0.19 mg/mL in series [1] (pH 1.2, 60 min, p-toluenesulfonate). Besides, the “intrinsic dissolution rate relative to the free base” value in series [4] is reported as “comparable to that of the free base”. Further, the “powder dissolution rate relative to the free base” value in [4] came to 60 times. Besides, the “resistance to becoming amorphous on milling and micronisation” value in [5] is “highly resistant to becoming amorphous; also recorded: unique resistance to becoming amorphous”. In addition, the “time the salt remains present in the slurry” value in series [6] (pH 6.5 buffer, room temperature, 100 mg in 2 mL) is recorded as “up to 75 minutes”. The entries for the “disproportionation of the salt to the free base in buffer” value in [6] (listed as Compound 1 tosylate salt) and in series [6] were “a small amount of free base is produced after 15 minutes” and “little disproportionation”, respectively. Besides, in series [7], the “exposure (plasma Compound 1) versus free base” value is given as “substantial increase in exposure”. For the same compound, the “percent dissolution after 1 hour” value was found to be 23.05% in [3] (FaSSIF, 50 mg (fbe) tablets, p-toluenesulfonate); 31.48% in series [3] (FaSSIF, powder, p-toluenesulfonate); 6.66% in [3] (SIF pH 6.5, 50 mg (fbe) tablets, p-toluenesulfonate); 5.16% in [3] (SIF pH 6.5, powder, p-toluenesulfonate). In addition, the “disproportionation in the solid state” value in [8] is listed as “no disproportionation”.
Turning to `Cn1cnc2c(F)c(Nc3ccc(Br)cc3Cl)c(C(=O)NOCCO)cc21` [Form 2, 6-(4-bromo-2-chloro-phenylamino)-7-fluoro-3-methyl-3H-benzoimidazole-5-carboxylic acid (2-hydroxy-ethoxy)-amide p-toluenesulfonate], the “disproportionation of the salt to the free base in buffer” value in series [6] was “some kinetic resistance to disproportionate”. Further, the “stability relative to the other polymorph” value in [9] is listed as “more stable than the salt in the form of the polymorph Form 1”.
